# Assays:
# COPD patients = assay: Pulmonary resveratrol clinical evaluation in COPD (Example 9); format: in vivo, human; details: inhaled, 4, 8 or 20 mg/day
# Protocol: Pulmonary administration of resveratrol for COPD may be evaluated by the method preceding in Example 8, using the inhaled doses specified in Example 4. Specifically the subgroups receive either 0 (placebo), 4, 8, or 20 mg/day resveratrol in inhaled doses of 0, 1, 2, or 5 mg administered 4 times daily for th duration of the study.
# Patients with asthma = assay: Oral resveratrol clinical evaluation in asthma (Example 3); format: in vivo, human; details: oral, 200, 2000 or 3000 mg/day, about six months
# Protocol: Resveratrol is evaluated clinically for efficacy in treating asthma. The methods of the following references are generally used in the evaluation of asthmatic disease: Wohl et al. (2000) N. Engl. J. Med. 343(15):1113-4; Agertoft et al. (2000) N. Engl. J. Med. 343(15):1064-9. Patients with asthma are treated once or more per day with gelatin capsules containing resveratrol. Patients are divided randomly and blindly into four approximately equal groups that receive either 0 (placebo), 200, 2000, or 3000 mg/day resveratrol for about six months in oral doses of 0, 50, 500, or 750 mg administered 4 times daily for about six months. Patients are medically monitored for clinical symptoms of asthma throughout the study, including frequency and severity of acute asthma attacks. […] In addition exhaled nitric oxide (NO) and carbon monoxide (CO) levels may be measured at more frequent intervals, such as every other week. Forced expiratory volume (FEV) and forced inspiratory volume (FIV) are also evaluated to measure airway patency as a direct measure of clinical morbidity and to determine correlation the histopathologic and other indicators of clinical disease, such as exhaled NO Immunhistopathologic examination of lung tissue biopsy samples taken at the same intervals as the blood samples are also examined for histopathologic evidence of extent and histology of inflammation.
# [1] = system: Asthmatic steroid naive children; assay: Resveratrol substitution for glucocorticoids in asthmatic steroid naive children (Example 6); format: in vivo, human
# Protocol: Asthmatic steroid naive children with asthma disease severe enough to require chronic pulmonary steroid therapy are divided randomly and blindly into three groups. The duration of the study should be long, as pulmonary steroids for asthma are a chronic therapy, thus 1 to 2 years or more is optimal. The first group is treated with oral resveratrol, with the group subdivided randomly and blindly into four approximately equal subgroups that receive either 0 (placebo), 200, 2000, or 3000 mg/day resveratrol for about 12 to 24 months in oral doses of 0, 50, 500, or 750 mg administered 4 times daily for about 12 to 24 months. […]
# The methods of the following references may be used in the evaluation of asthmatic disease: Wohl et al. (2000) N. Engl. […] Patients are medically monitored for clinical symptoms of asthma throughout the study, including frequency and severity of acute asthma attacks. […] In addition exhaled nitric oxide (NO) and carbon monoxide (CO) levels may be measured at more frequent intervals, such as every other week. Forced expiratory volume (FEV) and forced inspiratory volume (FIV) are also evaluated to measure airway patency as a direct measure of clinical morbidity and to determine correlation the histopathologic and other indicators of clinical disease, such as exhaled NO. […]
# [2] = system: TRE dependent transcription; assay: TRE (AP-1) luciferase reporter in stably transfected A549 cells; format: cell-based, human
# Protocol: The expression of inflammatory genes was then evaluated in cells transformed with luciferase reporter genes containing sites for transcription factors (Tf, Tfs). The A549 cells were stably transfected by routine methods with luciferase reporters containing the transcription factors NF-κB, TRE (AP-1, TPA responsive element) and CRE (cAMP responsive element). Luciferase activity of cell lysates resuspended in […] cell lysis buffer mixed (40 mml resuspended lysate: 40 mml assay reagent) was measured using the Luciferase Assay System (Promega), with emitted light measured by a Turner DesignsTD-20/20 luminometer (Steptech Instruments Ltd., Stevenage, U.K.)
smiles,measurement,setting,value
"Oc1ccc(/C=C/c2cc(O)cc(O)c2)cc1 [Resveratrol, 3,5,4′-trihydroxystilbene]",efficacy in treating COPD,COPD patients,effective for treating COPD
same,efficacy in treating asthma,Patients with asthma,effective for treating asthma
same,efficacy as substitute for inhaled steroids in treating asthma,"[1]; oral or pulmonary resveratrol vs pulmonary budenoside, 12 to 24 months",effective as substitutes for antiinflammatory treatment with inhaled steroids in treating asthma
same,systemic side effects compared with inhaled glucocorticoids,"[1]; oral or pulmonary resveratrol, including suppression of growth",reduced systemic side effects
same,extent of inhibition of TRE dependent transcription,[2],85%
same,EC50,"[2]; Homo sapiens, read-out: EC50 for inhibition of TRE dependent transcription",7 ± 4 µM

# — patent US6878751B1, “Administration of resveratrol to treat inflammatory respiratory disorders” (Imperial College of Science Technology and Medicine, priority 2000, dated 2005)
